Test systems include UACC-257; MDA-MB-435; UO-31; NCI-H226; DU-145; SK-MEL-5; 786-0; U-251; MOLT-4; SNB-19; SK-MEL-28; SNB-75; LOX IMVI; HT-29; COLO 205; A498; MDA-N; TK-10; OVCAR-4; T47D.
What all share (experiment): NCI-60 cell line screen, 48 h

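Each compound was tested at five concentrations against cells in 96-well plates for 48 hours. Abbreviation: GI50, concentration required for 50% inhibition of growth.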 The source made the active and inactive calls. No stated cut-off is given here; in the data, active = GI50 up to about 1.1 µM and inactive = higher.

As for `CCOc1ccc(N2C(=O)NC3(c4ccccc4)N(C)C(=O)N(C)C23c2ccccc2)cc1` (stereo not drawn), the GI50 is > 100 µM (inactive) in the experiment with UACC-257; > 100 µM (inactive) in the experiment with MDA-MB-435; 92.9 µM (inactive) in the experiment with UO-31; 61 µM (inactive) in the experiment on NCI-H226; > 100 µM (inactive) in the experiment with DU-145; 68.9 µM (inactive) in the experiment on SK-MEL-5. The GI50 in the experiment on 786-0 is > 100 µM (inactive); with U-251, > 100 µM (inactive); in the experiment with MOLT-4, 30.4 µM (inactive); in the experiment on SNB-19, > 100 µM (inactive); in the experiment with SK-MEL-28 it was > 100 µM (inactive); in the experiment on SNB-75 it was 12.4 µM (inactive). For the same molecule, the GI50 was > 100 µM (inactive) in the experiment with LOX IMVI; 94.2 µM (inactive) in the experiment with HT-29; > 100 µM (inactive) with COLO 205; > 100 µM (inactive) in the experiment with A498; 62.4 µM (inactive) with MDA-N.

For the molecule `OC1(c2cc3ccccc3s2)CCCCC1`, the GI50 with UACC-257 was 32.6 µM (inactive); in the experiment on MDA-MB-435 it was 46.8 µM (inactive); in the experiment with TK-10, 64.4 µM (inactive); in the experiment on UO-31, 51.1 µM (inactive); in the experiment with NCI-H226 it was 80.9 µM (inactive); with OVCAR-4, 39.2 µM (inactive). The GI50 with DU-145 is 63.2 µM (inactive); in the experiment with SK-MEL-5, 34.7 µM (inactive); in the experiment with 786-0, 34 µM (inactive); in the experiment with U-251 it was 49.5 µM (inactive); in the experiment with MOLT-4 it was 25.8 µM (inactive); with SNB-19, 82.4 µM (inactive). The GI50 in the experiment on SK-MEL-28 was 81.3 µM (inactive); in the experiment on SNB-75 it was 35.1 µM (inactive); in the experiment with LOX IMVI, 45.8 µM (inactive); in the experiment with HT-29, 23.7 µM (inactive); in the experiment with COLO 205, 19.9 µM (inactive); in the experiment with A498, 43.2 µM (inactive). The GI50 in the experiment on MDA-N is 38.4 µM (inactive).

For the molecule `COc1cc2c(cc1C[C@H]1[C@@H]3C[C@H]4c5c(c6ccccc6n5C)C[C@@H]([C@@H]3CO[C@]1(C)OC(C)=O)N4C)c1c(n2C)C2C[C@H]3C(C(C)=O)=COC[C@H]3[C@H](C1)N2C`, the GI50 is 4.03 µM (inactive) in the experiment on UACC-257; > 25 µM (inactive) in the experiment on MDA-MB-435; 3.62 µM (inactive) in the experiment with TK-10; 6.27 µM (inactive) in the experiment with UO-31; 5.46 µM (inactive) in the experiment with NCI-H226; 3.8 µM (inactive) in the experiment with OVCAR-4. In addition, the GI50 in the experiment with DU-145 was 6.38 µM (inactive); in the experiment on SK-MEL-5 it was 3.54 µM (inactive); with 786-0 it was 2.86 µM (inactive); with U-251 it was 5.57 µM (inactive); with MOLT-4, 2.44 µM (inactive); with SNB-19, 5.2 µM (inactive). Further, the GI50 in the experiment on SK-MEL-28 is 9.91 µM (inactive); with LOX IMVI it was > 25 µM (inactive); with HT-29, 1.53 µM (inactive); in the experiment on COLO 205 it was 3.08 µM (inactive); in the experiment on A498 it was 12.3 µM (inactive); in the experiment with T47D, 2.2 µM (inactive).

Consider `COC(=O)[C@H](CCSC)NC(=O)c1ccc(CNC(=O)/C=C/c2cccc(Oc3ccccc3)c2)cc1`, for which the GI50 with UACC-257 was 11.5 µM (inactive); with MDA-MB-435 it was 14.3 µM (inactive); in the experiment on TK-10 it was > 45.3 µM (inactive); in the experiment with UO-31, 42.9 µM (inactive); in the experiment with NCI-H226 it was > 23.8 µM (inactive); in the experiment with OVCAR-4, 33.6 µM (inactive). Also, the GI50 in the experiment on DU-145 is > 100 µM (inactive); in the experiment with SK-MEL-5, 15.6 µM (inactive); with 786-0, > 100 µM (inactive); in the experiment on U-251, > 100 µM (inactive); in the experiment on MOLT-4 it was 8.83 µM (inactive); in the experiment with SNB-19, > 95.1 µM (inactive). Besides, the GI50 is 17.4 µM (inactive) in the experiment on SK-MEL-28; 22.4 µM (inactive) with SNB-75; 51.8 µM (inactive) in the experiment on LOX IMVI; > 100 µM (inactive) in the experiment on HT-29; 21.9 µM (inactive) in the experiment on COLO 205; 19.8 µM (inactive) with A498. Further, the GI50 in the experiment on T47D is 0.27 µM (active).

As for `Nc1nc(CCl)nc(N2CCOCC2)n1`, the GI50 with UACC-257 is 63.2 µM (inactive); in the experiment with MDA-MB-435, 29.2 µM (inactive); with TK-10 it was 62.7 µM (inactive); in the experiment with UO-31 it was 17.3 µM (inactive); in the experiment with NCI-H226 it was 37.4 µM (inactive); in the experiment with OVCAR-4, 17.4 µM (inactive). Moreover, the GI50 with DU-145 was 38.4 µM (inactive); in the experiment on SK-MEL-5 it was 20.1 µM (inactive); with 786-0, 14 µM (inactive); in the experiment with U-251, 22.4 µM (inactive); with MOLT-4, 26.9 µM (inactive); in the experiment with SNB-19 it was > 100 µM (inactive). Besides, the GI50 in the experiment with SK-MEL-28 was 20.4 µM (inactive); with SNB-75 it was 33.5 µM (inactive); in the experiment with HT-29 it was 32.7 µM (inactive); with COLO 205, 17.9 µM (inactive); in the experiment with A498 it was 33 µM (inactive); with T47D, 55.3 µM (inactive).

Take `CCCN1C(=O)/C(=C\c2ccc(OC)c(OC)c2)S/C1=N\c1ccccc1`: the GI50 is > 100 µM (inactive) in the experiment with UACC-257; > 100 µM (inactive) in the experiment with MDA-MB-435; 31.1 µM (inactive) with TK-10; > 100 µM (inactive) with UO-31; > 100 µM (inactive) in the experiment with NCI-H226; > 100 µM (inactive) with OVCAR-4. For the same molecule, the GI50 in the experiment on SK-MEL-5 was > 100 µM (inactive); in the experiment on 786-0 it was 17.5 µM (inactive); in the experiment on U-251 it was 27.8 µM (inactive); with MOLT-4, > 100 µM (inactive); in the experiment on SNB-19, 27.5 µM (inactive); with SK-MEL-28, > 100 µM (inactive). The GI50 in the experiment with LOX IMVI was > 100 µM (inactive); in the experiment on HT-29 it was > 100 µM (inactive); in the experiment on COLO 205, > 100 µM (inactive); in the experiment with A498 it was 38.3 µM (inactive); in the experiment with T47D, > 100 µM (inactive); in the experiment on MDA-N, > 100 µM (inactive).

On to `Cc1cc(N(CCC#N)CCC#N)ccc1C(/N=N\c1ccc(C(=O)O)cc1)=N\NC(=O)c1cc(Cl)ccc1O`, for which the GI50 in the experiment with UACC-257 was > 100 µM (inactive); with MDA-MB-435, > 100 µM (inactive); with TK-10 it was 40.2 µM (inactive); with UO-31 it was 22.1 µM (inactive); with NCI-H226, 18.7 µM (inactive); with OVCAR-4, 29.2 µM (inactive). Besides, the GI50 in the experiment on DU-145 is 64 µM (inactive); with SK-MEL-5, 78.7 µM (inactive); in the experiment with 786-0, 19.3 µM (inactive); with U-251, 24.9 µM (inactive); in the experiment on MOLT-4, > 100 µM (inactive); with SNB-19, 23.6 µM (inactive). Also, the GI50 in the experiment on SNB-75 was 22.6 µM (inactive); in the experiment on HT-29, > 100 µM (inactive); in the experiment on COLO 205, > 100 µM (inactive); with A498, 28.6 µM (inactive); with T47D, 40.7 µM (inactive).

Take `Oc1cc(-c2cccc(C(F)(F)F)c2)nc2cc3c(cc12)OCO3`: the GI50 with MDA-MB-435 was 0.935 µM (active); with TK-10, > 50 µM (inactive); in the experiment on UO-31 it was 8.89 µM (inactive); with 786-0, 2.05 µM (inactive); with U-251 it was 2.55 µM (inactive); in the experiment on MOLT-4 it was 2.82 µM (inactive). In addition, the GI50 with SNB-19 is 2.77 µM (inactive); in the experiment with SK-MEL-28, 2.87 µM (inactive); in the experiment with SNB-75 it was 1.06 µM (active); with HT-29, 13.7 µM (inactive); with COLO 205 it was 8.93 µM (inactive); with A498 it was 8.87 µM (inactive). The GI50 with T47D was > 50 µM (inactive).

In the case of `C[C@H]1CC[C@@]2(OC1)O[C@H]1C[C@H]3[C@@H]4CC[C@@H]5C[C@@H](OC6OC(CO)C(O)C(O)C6OC6OC(CO)C(O)C(O)C6O)CC[C@]5(C)[C@H]4CC[C@]3(C)[C@H]1[C@@H]2C` (stereo partly drawn), the GI50 in the experiment with UACC-257 was 2.15 µM (inactive); with MDA-MB-435 it was 2.15 µM (inactive); in the experiment with TK-10, 1.94 µM (inactive); with UO-31, 1.99 µM (inactive); with NCI-H226 it was 2.34 µM (inactive); in the experiment with OVCAR-4, 2.33 µM (inactive). In addition, the GI50 in the experiment with DU-145 was 2.34 µM (inactive); with SK-MEL-5 it was 2.18 µM (inactive); in the experiment with 786-0, 2.01 µM (inactive); in the experiment on U-251, 2.26 µM (inactive); in the experiment with MOLT-4 it was 1.84 µM (inactive); in the experiment with SNB-19, 2.18 µM (inactive). Moreover, the GI50 with SNB-75 was 2.24 µM (inactive); with LOX IMVI it was 1.99 µM (inactive); in the experiment with HT-29 it was 2 µM (inactive); in the experiment on COLO 205, 1.9 µM (inactive); in the experiment with T47D, 1.99 µM (inactive).

As for `CC1(C)CC(=O)c2c(N)n[nH]c2C1`, the GI50 in the experiment with UACC-257, in the experiment with MDA-MB-435, in the experiment on UO-31, with NCI-H226, in the experiment on OVCAR-4 and with DU-145 was > 100 µM (inactive) throughout. For the same molecule, the GI50 with SK-MEL-5, in the experiment with 786-0, with U-251, with MOLT-4, in the experiment with SNB-19 and with SK-MEL-28 was > 100 µM (inactive) in each case. The GI50 with SNB-75, with LOX IMVI, in the experiment with HT-29, in the experiment on COLO 205, in the experiment on A498 and in the experiment with MDA-N was > 100 µM (inactive) each time.

Consider `CN(C(=O)c1ccncc1)c1ccccc1`, for which the GI50 in the experiment with UACC-257, in the experiment on MDA-MB-435, with TK-10, with UO-31, in the experiment on NCI-H226 and in the experiment with OVCAR-4 was > 100 µM (inactive) throughout. Moreover, the GI50 in the experiment with DU-145, with SK-MEL-5, with 786-0, in the experiment on U-251, in the experiment with MOLT-4 and with SNB-19 was > 100 µM (inactive) each time. Further, the GI50 with SK-MEL-28, in the experiment on SNB-75, with LOX IMVI, with HT-29, in the experiment on COLO 205 and with A498 was > 100 µM (inactive) each time. The GI50 in the experiment on T47D is > 100 µM (inactive).

(Values after ChEMBL document CHEMBL1201862, “PubChem BioAssay data set” (2004).)
